Ki, CC50 and EC50 data for 25 compounds are collected here from ChEMBL document CHEMBL3751795, “Discovery of pyridyl-based inhibitors of Plasmodium falciparum N-myristoyltransferase” (Medchemcomm, 2015).

pEC50, pKi: −log10 of the molar value.

The target in series [1] is T1, Glycylpeptide N-tetradecanoyltransferase (Plasmodium falciparum (isolate 3D7), UniProt Q8ILW6).
T1 sequence (Q8ILW6 whole entry): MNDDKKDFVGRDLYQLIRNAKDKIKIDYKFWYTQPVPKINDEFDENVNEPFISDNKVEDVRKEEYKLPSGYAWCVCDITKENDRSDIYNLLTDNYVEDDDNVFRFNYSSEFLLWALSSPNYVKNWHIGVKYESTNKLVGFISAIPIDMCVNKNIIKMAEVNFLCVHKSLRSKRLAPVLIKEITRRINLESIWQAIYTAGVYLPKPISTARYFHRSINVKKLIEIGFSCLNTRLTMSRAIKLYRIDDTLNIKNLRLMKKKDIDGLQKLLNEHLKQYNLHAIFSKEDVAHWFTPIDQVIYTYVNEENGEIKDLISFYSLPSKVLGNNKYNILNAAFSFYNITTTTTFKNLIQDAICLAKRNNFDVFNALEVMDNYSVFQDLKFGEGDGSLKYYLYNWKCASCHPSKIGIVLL
To be noted: read-out: Ki(app).

A short description of series [2]: Cytotoxicity against human HepG2 cells after 48 hrs by MTS assay. Format: cell-based. To be noted: read-out: LD50.
Series [3] addresses T2, Glycylpeptide N-tetradecanoyltransferase 1 (Homo sapiens, UniProt P30419).
T2 sequence (P30419 whole entry): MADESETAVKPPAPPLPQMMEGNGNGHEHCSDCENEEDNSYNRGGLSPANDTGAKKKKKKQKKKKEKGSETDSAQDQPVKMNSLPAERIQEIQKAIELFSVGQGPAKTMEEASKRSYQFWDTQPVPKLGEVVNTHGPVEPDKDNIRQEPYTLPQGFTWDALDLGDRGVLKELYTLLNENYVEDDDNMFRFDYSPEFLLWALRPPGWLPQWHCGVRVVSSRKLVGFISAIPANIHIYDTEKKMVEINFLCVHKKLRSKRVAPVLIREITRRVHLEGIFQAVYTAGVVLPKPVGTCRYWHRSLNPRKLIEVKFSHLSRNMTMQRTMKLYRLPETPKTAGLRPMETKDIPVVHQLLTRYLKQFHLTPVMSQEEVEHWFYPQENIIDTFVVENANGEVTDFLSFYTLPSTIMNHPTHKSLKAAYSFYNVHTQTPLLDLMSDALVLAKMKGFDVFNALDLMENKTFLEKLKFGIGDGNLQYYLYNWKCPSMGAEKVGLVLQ
Description: Inhibition of human NMT1 by 7-diethylamine-3-(4'maleimidylphenyl)-4-methylcoumarin based fluorescence assay

For the next series, the system named is Plasmodium falciparum. Briefly: Antiparasitic activity against Plasmodium falciparum 3D7 trophozoites infected in RBC assessed as reduction in cell viability incubated for 96 hrs SyBr green assay. The note with it: 3D7, 96 h.

In the case of `Cc1ccc(-c2nc(Cc3ccccc3)no2)c(OC2CCNCC2)c1`, the pKi in series [1] is 6.21.
Still for that read-out and setting: under `Fc1cccc(-c2nc(Cc3ccccc3)no2)c1OC1CCNCC1` stands 5.82.
For the compound `Cc1nn(C)c(C)c1Cc1noc(-c2cccnc2OC2CCNCC2)n1`, in series [1], the pKi is 7.55. Also, in series [2], the CC50 at 48 h is above 100 µM.
In the case of `Fc1cccc(OC2CCNCC2)c1-c1nc(Cc2ccccc2)no1`, the pKi in series [1] was 5.32.
Same read-out and setting: under `COc1cccc(Cc2noc(-c3ccc(Cl)cc3OC3CCNCC3)n2)c1` stands 7.52.
With `Fc1ccc(-c2nc(Cc3ccccc3)no2)c(OC2CCNCC2)c1`, the pKi is 5.31 in series [3] and 6.66 in series [1].
For `Fc1ccc(OC2CCNCC2)c(-c2nc(Cc3ccccc3)no2)c1`, in that order: 6.00 and 6.62.
As for `Clc1ccc(-c2nc(Cc3ccccc3)no2)c(OC2CCNCC2)c1`, the pKi in series [1] was 6.54.
Still for that read-out and setting: under `c1ccc(Cc2noc(-c3ncccc3OC3CCNCC3)n2)cc1` stands 4.54; under `COc1cccc(Cc2noc(-c3cccnc3OC3CCNCC3)n2)c1`, 7.57; under `COc1cccc(Cc2noc(-c3ccc(OC)cc3OC3CCNCC3)n2)c1`, 7.15.
On to `Cc1nn(C)c(C)c1Cc1noc(-c2cccnc2OC2CCN(C(C)C)CC2)n1`, for which the pKi in series [1] is 7.05. The CC50 at 48 h in series [2] was above 100 µM.
`COc1ccc(OC2CCNCC2)c(-c2nc(Cc3ccccc3)no2)c1`: the results for the pKi in series [3] and in series [1] were 5.64 and 5.34, respectively.
Taken in the same sequence, the figures for `COc1cccc(Cc2noc(-c3ccccc3OC3CCNCC3)n2)c1` were 5.85 and 6.72.
For `c1ccc(Cc2noc(-c3cccnc3OC3CCNCC3)n2)cc1`, in that order: 5.77 and 6.85.
In the case of `Cc1ccc(OC2CCNCC2)c(-c2nc(Cc3ccccc3)no2)c1`, the negative-log Ki (pKi) in series [1] was 4.54.
`COc1ccc(-c2nc(Cc3ccccc3)no2)c(OC2CCNCC2)c1`: the values for the pKi in series [3] and in series [1] were 5.92 and 6.74, respectively.
Turning to `COc1cccc(-c2nc(Cc3ccccc3)no2)c1OC1CCNCC1`, the pKi in series [1] was 4.77.
Same read-out and setting: under `Cc1cccc(-c2nc(Cc3ccccc3)no2)c1OC1CCNCC1` stands 4.41.
In the case of `c1cnc(OC2CCNCC2)c(-c2nc(Cc3cccc4ncccc34)no2)c1`, the pKi in series [3] was 7.62; in series [1], 8.77. Moreover, in the series with Plasmodium falciparum, the pEC50 is 6.68. Further, the CC50 at 48 h in series [2] was 65 µM.
For `c1ccc(Cc2noc(-c3ccccc3OC3CCNCC3)n2)cc1`, the pKi in series [1] was 5.85.
The same measure, in the same setting: under `Clc1ccc(OC2CCNCC2)c(-c2nc(Cc3ccccc3)no2)c1` stands 6.28; under `COc1cccc(Cc2noc(-c3ccc(F)cc3OC3CCNCC3)n2)c1`, 7.15.
With `Cc1nn(C)c(C)c1Cc1noc(-c2cccnc2OC2CCN(C)CC2)n1`, in the series on Plasmodium falciparum, the pEC50 is below 4.52. For the same compound, the pKi in series [1] is 6.24.
Taken in the same sequence, the figures for `CCN1CCC(Oc2ncccc2-c2nc(Cc3c(C)nn(C)c3C)no2)CC1` were below 5.00 and 6.47.
